# Results taken from ChEMBL document CHEMBL4602719, “Discovery of Potent, Selective, and Orally Bioavailable Inhibitors of USP7 with In Vivo Antitumor Activity” (J Med Chem, 2020).
# Active and inactive are the calls of the source. The calls are words filed in the database; no cut-off is given here.
# Legend:
# [1] = Cytotoxicity against human RKO cells assessed as reduction in cellular ATP level measured after 5 days by CellTiter-Glo assay; type: cell-based
# MM1.S [2] = test: Antitumor activity against human MM1S cells xenografted in NOD/SCID mouse assessed as tumor growth inhibition at 50 mg/kg, po administered twice daily and measured twice per week relative to control; type: functional; settings: read-out: TGI
# NCI-H526 [3] = test: Cytotoxicity against human NCI-H526 cells expressing p53 mutant assessed as reduction in cell viability measured after 5 days by CellTiter-Glo assay; type: functional; settings: NCI-H526, 120 h
# NCI-H526 [4] = settings: Homo sapiens
# Description: Antitumor activity against human NCI-H526 cells xenografted in athymic nu/nu mouse assessed as tumor growth inhibition at 50 mg/kg, po administered twice daily for 24 days and measured twice per week
# [5] = Protein binding in mouse plasma by ultracentrifugation method; type: ADME, cell-free; settings: read-out: PPB (converted)
# [6] = target: T1, Ubiquitin carboxyl-terminal hydrolase 7 (Homo sapiens, UniProt Q93009); test: Inhibition of USP7 in human RKO cells transfected with p53 luciferase reporter vector assessed as increase in p53-dependent luciferase activity measured after 18 hrs by BrightGlo luciferase assay; type: cell-based
# [7] = AUC in NOD/SCID mouse at 30 mg/kg, po; type: ADME, organism-based; settings: in vivo
# [8] = AUC in BALB/c mouse at 30 mg/kg, po; type: ADME, organism-based; settings: in vivo
# [9] = target: T1, Ubiquitin carboxyl-terminal hydrolase 7; test: Inhibition of recombinant full length USP7 (unknown origin) using ubiquintin-rhodamine as substrate preincubated for 30 mins followed by substrate addition measured after 1 hr by fluorescence-based Envision plate reader assay
# [10] = Toxicity in NOD/SCID mouse xenografted with human MM1S cells assessed as decrease in body weight at 50 mg/kg, po administered twice daily and measured twice per week relative to control; type: organism-based; parameters: scale not given: the % may be the effect or the level left; settings: in vivo
# [11] = AUC in nude mouse at 30 mg/kg, po; type: ADME, organism-based; settings: in vivo
# [12] = target: Voltage-gated inwardly rectifying potassium channel KCNH2 (Homo sapiens, UniProt Q12809); test: Inhibition of human ERG
# MM1.S [13] = test: Cytotoxicity against human MM1S cells expressing wild type p53 assessed as reduction in cell viability measured after 5 days by CellTiter-Glo assay; type: functional; settings: 120 h
# [14] = target: T2, Ubiquitin carboxyl-terminal hydrolase 47 (Homo sapiens, UniProt Q96K76); test: Inhibition of USP47 (unknown origin) by biochemical assay
# T2 sequence (Q96K76 whole entry): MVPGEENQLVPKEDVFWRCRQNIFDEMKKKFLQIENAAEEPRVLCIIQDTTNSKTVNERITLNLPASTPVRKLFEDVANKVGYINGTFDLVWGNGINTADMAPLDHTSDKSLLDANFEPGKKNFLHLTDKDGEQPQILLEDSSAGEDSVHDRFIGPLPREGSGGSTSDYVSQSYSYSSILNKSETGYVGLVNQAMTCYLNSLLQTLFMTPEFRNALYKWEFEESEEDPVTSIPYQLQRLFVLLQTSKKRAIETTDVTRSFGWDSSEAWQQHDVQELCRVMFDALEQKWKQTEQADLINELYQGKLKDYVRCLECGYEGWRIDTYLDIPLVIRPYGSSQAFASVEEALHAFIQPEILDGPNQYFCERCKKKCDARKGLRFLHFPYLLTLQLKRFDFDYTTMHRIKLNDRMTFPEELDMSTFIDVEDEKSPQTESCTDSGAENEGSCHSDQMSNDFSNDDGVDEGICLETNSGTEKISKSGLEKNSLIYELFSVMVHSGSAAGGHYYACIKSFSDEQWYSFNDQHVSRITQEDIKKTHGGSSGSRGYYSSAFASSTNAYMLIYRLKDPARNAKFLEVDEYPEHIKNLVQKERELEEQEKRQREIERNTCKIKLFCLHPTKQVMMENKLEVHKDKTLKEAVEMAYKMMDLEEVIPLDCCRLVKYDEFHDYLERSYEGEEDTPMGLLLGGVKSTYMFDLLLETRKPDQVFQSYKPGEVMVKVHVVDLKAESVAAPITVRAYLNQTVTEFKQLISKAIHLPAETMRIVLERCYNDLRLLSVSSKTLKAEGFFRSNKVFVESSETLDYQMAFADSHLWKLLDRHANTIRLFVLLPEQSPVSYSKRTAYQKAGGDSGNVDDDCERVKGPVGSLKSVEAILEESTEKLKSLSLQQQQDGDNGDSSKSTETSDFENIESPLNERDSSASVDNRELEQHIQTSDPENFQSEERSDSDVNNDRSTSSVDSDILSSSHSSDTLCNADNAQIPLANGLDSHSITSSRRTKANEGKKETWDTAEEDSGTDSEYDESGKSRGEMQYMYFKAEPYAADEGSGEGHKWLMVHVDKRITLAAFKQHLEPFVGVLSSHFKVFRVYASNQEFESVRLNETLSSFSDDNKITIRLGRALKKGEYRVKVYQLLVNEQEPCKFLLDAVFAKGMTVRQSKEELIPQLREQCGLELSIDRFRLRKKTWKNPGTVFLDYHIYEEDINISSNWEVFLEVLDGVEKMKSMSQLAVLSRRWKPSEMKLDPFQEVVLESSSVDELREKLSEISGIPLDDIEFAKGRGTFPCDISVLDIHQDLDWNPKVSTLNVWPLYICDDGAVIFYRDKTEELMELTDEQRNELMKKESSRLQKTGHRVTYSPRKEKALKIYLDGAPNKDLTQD
# [15] = target: T3, Ubiquitin carboxyl-terminal hydrolase 1 (Homo sapiens, UniProt O94782); test: Inhibition of His6-tagged human USP1 expressed in insect Sf21 cells coexpressing untagged UAF1 assessed as cleavage of Ubiquitin-Rhodamine110-glycine to Ubiquitin and Rhodamine110-glycine using Ubiquitin-Rhodamine110-glycine as substrate by fluorescence based analysis
# T3 sequence (O94782 whole entry): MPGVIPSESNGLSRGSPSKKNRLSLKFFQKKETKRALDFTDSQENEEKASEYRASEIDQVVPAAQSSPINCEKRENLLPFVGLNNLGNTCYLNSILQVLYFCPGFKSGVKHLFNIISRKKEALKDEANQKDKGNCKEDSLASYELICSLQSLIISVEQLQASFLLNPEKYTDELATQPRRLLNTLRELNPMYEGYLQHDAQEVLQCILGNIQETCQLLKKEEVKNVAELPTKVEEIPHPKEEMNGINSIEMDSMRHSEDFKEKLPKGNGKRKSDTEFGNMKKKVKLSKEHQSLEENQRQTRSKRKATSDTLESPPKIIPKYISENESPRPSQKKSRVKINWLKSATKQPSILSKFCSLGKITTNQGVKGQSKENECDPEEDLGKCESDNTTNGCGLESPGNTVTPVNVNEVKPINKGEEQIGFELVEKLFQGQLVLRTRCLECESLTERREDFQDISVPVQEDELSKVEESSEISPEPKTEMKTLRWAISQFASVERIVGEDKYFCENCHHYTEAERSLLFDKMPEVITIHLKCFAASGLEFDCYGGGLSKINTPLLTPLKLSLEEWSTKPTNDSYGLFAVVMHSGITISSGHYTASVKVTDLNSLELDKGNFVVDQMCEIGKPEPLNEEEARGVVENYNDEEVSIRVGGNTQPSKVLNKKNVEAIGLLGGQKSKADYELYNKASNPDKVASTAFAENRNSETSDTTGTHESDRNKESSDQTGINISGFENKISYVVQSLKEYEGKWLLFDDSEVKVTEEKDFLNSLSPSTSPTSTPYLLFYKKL
# [16] = target: T4, Ubiquitin carboxyl-terminal hydrolase isozyme L3 (Homo sapiens, UniProt P15374); test: Inhibition of human GST-tagged UCHL3 expressed in Escherichia coli assessed as cleavage of Ubiquitin-Rhodamine110-glycine to Ubiquitin and Rhodamine110-glycine using Ubiquitin-Rhodamine110-glycine as substrate by fluorescence based analysis
# T4 sequence (P15374 whole entry): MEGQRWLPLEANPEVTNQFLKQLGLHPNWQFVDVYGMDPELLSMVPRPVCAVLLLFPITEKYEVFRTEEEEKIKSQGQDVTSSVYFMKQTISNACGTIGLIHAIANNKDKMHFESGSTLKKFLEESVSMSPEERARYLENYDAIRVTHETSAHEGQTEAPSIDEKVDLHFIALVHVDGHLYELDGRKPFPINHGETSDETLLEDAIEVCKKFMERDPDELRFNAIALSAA
# T1 sequence (Q93009 whole entry): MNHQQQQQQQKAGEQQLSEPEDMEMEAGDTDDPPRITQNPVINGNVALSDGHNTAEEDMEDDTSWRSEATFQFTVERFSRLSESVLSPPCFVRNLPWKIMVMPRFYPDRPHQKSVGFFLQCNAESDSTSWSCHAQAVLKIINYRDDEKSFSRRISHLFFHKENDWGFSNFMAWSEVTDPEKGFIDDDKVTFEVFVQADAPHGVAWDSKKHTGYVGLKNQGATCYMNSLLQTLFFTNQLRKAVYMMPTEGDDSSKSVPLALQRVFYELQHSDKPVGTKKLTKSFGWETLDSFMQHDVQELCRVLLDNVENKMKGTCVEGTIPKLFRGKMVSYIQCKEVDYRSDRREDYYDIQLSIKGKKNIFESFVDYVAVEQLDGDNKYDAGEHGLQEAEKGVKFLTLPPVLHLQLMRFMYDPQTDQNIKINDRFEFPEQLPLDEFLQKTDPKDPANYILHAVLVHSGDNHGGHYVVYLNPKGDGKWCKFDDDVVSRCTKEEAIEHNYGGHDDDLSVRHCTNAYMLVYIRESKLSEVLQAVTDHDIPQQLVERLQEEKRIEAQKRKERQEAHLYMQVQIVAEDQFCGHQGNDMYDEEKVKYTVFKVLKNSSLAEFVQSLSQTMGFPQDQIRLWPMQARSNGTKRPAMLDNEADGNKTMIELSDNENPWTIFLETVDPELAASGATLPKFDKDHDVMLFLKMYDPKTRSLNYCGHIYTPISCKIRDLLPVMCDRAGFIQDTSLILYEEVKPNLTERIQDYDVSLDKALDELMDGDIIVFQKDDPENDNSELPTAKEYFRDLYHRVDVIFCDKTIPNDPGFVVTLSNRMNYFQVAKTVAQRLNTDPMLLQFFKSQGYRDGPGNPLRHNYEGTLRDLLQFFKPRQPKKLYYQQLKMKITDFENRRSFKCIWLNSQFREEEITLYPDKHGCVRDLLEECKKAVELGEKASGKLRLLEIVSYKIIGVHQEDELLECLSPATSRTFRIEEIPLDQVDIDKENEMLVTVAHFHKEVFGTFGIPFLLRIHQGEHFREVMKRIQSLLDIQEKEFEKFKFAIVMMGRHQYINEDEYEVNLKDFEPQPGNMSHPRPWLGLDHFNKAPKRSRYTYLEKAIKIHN
# Voltage-gated inwardly rectifying potassium channel KCNH2, sequence (Q12809 whole entry): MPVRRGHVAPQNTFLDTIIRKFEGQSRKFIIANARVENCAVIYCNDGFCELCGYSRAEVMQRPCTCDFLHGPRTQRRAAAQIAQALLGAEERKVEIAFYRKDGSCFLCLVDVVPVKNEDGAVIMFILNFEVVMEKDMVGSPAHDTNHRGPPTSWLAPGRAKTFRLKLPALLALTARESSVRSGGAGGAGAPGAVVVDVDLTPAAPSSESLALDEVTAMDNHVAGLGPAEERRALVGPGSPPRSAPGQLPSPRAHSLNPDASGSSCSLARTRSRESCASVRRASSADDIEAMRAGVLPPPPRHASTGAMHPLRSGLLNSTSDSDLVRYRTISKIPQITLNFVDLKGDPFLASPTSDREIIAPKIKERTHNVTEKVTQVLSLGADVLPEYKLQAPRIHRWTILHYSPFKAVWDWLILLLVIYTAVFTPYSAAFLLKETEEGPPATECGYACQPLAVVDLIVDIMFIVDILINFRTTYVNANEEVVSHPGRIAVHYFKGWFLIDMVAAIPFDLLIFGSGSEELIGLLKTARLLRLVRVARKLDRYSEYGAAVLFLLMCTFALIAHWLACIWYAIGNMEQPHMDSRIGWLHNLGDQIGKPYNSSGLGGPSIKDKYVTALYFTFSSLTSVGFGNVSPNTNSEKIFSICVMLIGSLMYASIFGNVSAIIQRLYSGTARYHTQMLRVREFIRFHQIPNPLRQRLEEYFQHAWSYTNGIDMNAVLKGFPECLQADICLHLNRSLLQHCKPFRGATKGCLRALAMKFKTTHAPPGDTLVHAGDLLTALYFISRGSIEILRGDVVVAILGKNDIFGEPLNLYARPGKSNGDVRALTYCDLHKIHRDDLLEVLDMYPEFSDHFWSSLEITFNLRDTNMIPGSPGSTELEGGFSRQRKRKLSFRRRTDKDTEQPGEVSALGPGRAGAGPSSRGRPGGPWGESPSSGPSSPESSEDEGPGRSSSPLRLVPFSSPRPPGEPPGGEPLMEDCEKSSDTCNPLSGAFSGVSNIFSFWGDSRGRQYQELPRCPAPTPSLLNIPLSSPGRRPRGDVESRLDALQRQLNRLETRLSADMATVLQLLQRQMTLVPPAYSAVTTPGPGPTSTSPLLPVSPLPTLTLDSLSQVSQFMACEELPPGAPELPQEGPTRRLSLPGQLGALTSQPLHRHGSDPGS
smiles,measurement,setting,value
Cc1cc(Cl)cc(-c2ccnc3cc(CN4C(=O)C5C(C4=O)C5(C)C)sc23)c1C[C@@H]1CNCCO1 (stereo not given in full),CC50 at 120 h,[1],13 µM
same,inhibition in vivo at 50 mg/kg,MM1.S [2],100%
same,CC50,NCI-H526 [3],0.45 µM
same,TGI,NCI-H526 [4],Active
same,fraction unbound,[5],0.047
same,EC50,[6],0.025 µM
same,AUC,[7],5500 ng·h/mL
same,AUC,[8],9400 ng·h/mL
same,IC50,[9],0.00044 µM
same,Activity,[10],< 90%
same,AUC,[11],4600 ng·h/mL
same,IC50,[12],4.2 µM
same,CC50,MM1.S [13],0.089 µM
CC(Cc1ccccc1)C(=O)N1CCC(O)(Cn2cnc3ccccc3c2=O)CC1 (stereo not given),IC50,[14],> 80 µM
same,IC50,[15],> 80 µM
same,IC50,[16],> 80 µM
Nc1cc(-c2cc(Cl)cc3c2OC(C(=O)N2CCNCC2)C3)ccn1 (racemic),IC50,[14],> 80 µM
same,IC50,[9],5.6 µM
same,IC50,[15],> 80 µM
same,IC50,[16],> 80 µM
